Like-named read-outs stand apart in the source and are kept apart here. Each block holds one compound with its values, some of them ahead of it.
Tests used:
[1] = system: DOPA accumulation in eminentia mediana; experiment: DOPA accumulation in eminentia mediana after NSD-1015; format: in vivo, Sprague-Dawley rats; settings: for DOPA levels (pmol/mg prot): rat eminentia mediana, mean ± SEM
Description: Acute administration of atypical antipsychotics results in enhanced accumulation of dihydroxyphenylalanine (DOPA) in the […] after the inhibition of DOPA decarboxylase. In contrast, DOPA accumulation is not altered by the typical antipsychotics (Andersson, G, Albinsson, A, Pettersson, G, Arzneimittelforschung. 1990, 40, 237; Gudelsky, G. A., Meltzer, H. Y. Neuropsychopharmacology, 1989, 2, 45). The effect of the compound of Example 121 on DOPA-accumulation was measured by analyzing the levels of DOPA in […]. […] (EM), were dissected out from the brains on ice-cold plates and kept at -70° C. until they were assayed for DOPA by HPL-EC. Statistical analysis was carried out using one-way ANOVA followed by Duncan test.

[2] = system: apomorphine-induced stereotyped behavior; experiment: apomorphine-induced stereotypy; format: in vivo, CD1 mice; settings: for ED50: Mus musculus, read-out: Stereotypy ED50 (mg/kg po.)
Source text: (§1) Anti-apomorphine effects were investigated in the climbing test in mice mediated through the mesolimbic and stereotypy test in rats mediated through the nigrostriatal system. Conventional antipsychotics antagonize both apomorphine-induced behaviours, while known atypical antipsychotics are weaker against apomorphine stereotypy.
Apomorphine-induced stereotypy was investigated according to Costall and Naylor (B. Costall and R. J. Naylor, Eur. J. Pharmacol. 1972, 18, 95) in male CD1 mice of 20-25 g body weight after 16 hours deprivation of food. 30 min before treatment mice were individually placed into small, transparent acrylic cages for habituation. Test substances were administered orally in a volume of 0.1 ml/10 g. 30 min later mice were treated with apomorphine HCl (SIGMA) in a subcutaneous dose of 2 mg/kg. […] The scores were summed individually, meaned and compared to the control group. The ED50 values were calculated by Litchfield-Wilcoxon's method (J. Pharmacol. Exp. Ther. 1949, 96, 49,).

[3] = system: PCP-induced hypermotility; experiment: PCP-induced hypermotility (motor activity meter) in mice; format: in vivo; settings: Mus musculus, read-out: PCP-hypermotility ED50 mg/kg po.
Source text: (§2) Alterations in the mesocortical dopaminergic tract are thought to be responsible for the negative symptoms of schizophrenia (flattening of affect, poverty of speech, lack of volition and drive, loss of feeling, social withdrawal and decreased spontaneous movement). The best animal model of these symptoms is the behavioral changes induced by PCP (phencyclidine). The PCP-induced stereotypy and hypermotility was investigated in mice according to Ljungberg and Ungerstedt (Ljungberg, T., Ungerstedt, U. Pharmacol. Biochem. Behav., 1985, 23, 479,) and Jawitt (Jawitt, D. C. Amer. J. Psychiatry, 1991, 145, 1301). The stereotypy experiments were carried out in male CD1 mice weighing 20-25 g. The animals were starved for 16 hours before treatment without limitation of water availability. In the stereotypy studies, 30 min before treatment, mice were individually placed into small, transparent acrylic cages for habituation. Test substances were administered orally in a volume of 0.1 ml/10 g. 30 min later mice were treated with PCP with an intraperitoneal dose of 7 mg/kg. Stereotyped behavior was observed every 5th min for 60 min and scored from 0 to 4. The scores were summed individually, averaged and compared to the control group.
The motor activity was measured in a 4-channel activity meter. The apparatus consisted of acrylic cages (40×40×32 cm) equipped with 16 pairs of infrared photocells. The photocells' beam, when broken, signaled a count, which was then recorded by a computer. A 5 mg/kg intraperitoneal dose of PCP was administered 5 min before the experiment. This dose of PCP induces 110-120% increase of the spontaneous motor activity. Test substances were administered orally 15 min before experiment, and mice were investigated individually in the experimental cages for 60 min. 10 mice/group were used. The total counts for each experimental group were compared to the vehicle treated control group.
(§3) In both studies the ED50 values were calculated by the Litchfield-Wilcoxon's method (J. Pharmacol. Exp. Ther. 1949, 96, 49).

[4] = system: apomorphine-induced climbing; experiment: apomorphine-induced climbing test in mice; format: in vivo, CD1 mice; settings: for ED50: Mus musculus, read-out: Climbing ED50 (mg/kg ip.)
Description: as §1
The climbing test was carried out according to Protais et al. (Protais, P. et al. Psychopharmacologia, 1976, 50, 1.) Stereotyped behavior was induced in food deprived (for 16 hours) male CD1 mice weighing 20-25 g body by apomorphine HCl (SIGMA) in a s.c. dose of 2 mg/kg. Mice were placed individually into cylinders having 12 cm diameter and consisting of vertical bars of 2 mm diameter where apomorphine treated animals tended to adopt a vertical position in contrary to vehicle treated controls. Test substances were applied ip. 30 min before apomorphine.
10 and 20 min after apomorphine treatment the climbing behaviour was evaluated by scores of 0-2. 10 mice/group were used. The scores of the two readings were summed individually, meaned and compared to the control. The ED50 values were calculated by Litchfield-Wilcoxon's method (Litchfield Jr. J. T., Wilcoxon, F. J. Pharmacol. Exp. Ther. 1949, 96, 49,).

catalepsy = catalepsy test in rats; format: in vivo, CDBR rats; settings: for Catalapsy scores: dose 10 mg/kg ip, sum of 8 readings over 4 hours; for cataleptogenic potential: intraperitoneal, result in words
Source text: In order to investigate the potential side effect profile, the catalepsy test in rats has been carried out according to Costall and Naylor (Costall, B., Naylor, R. J. Arzneimittelforschung/Drug Res., 1973, 23, 674).
Catalepsy is defined as a failure to correct an externally imposed, unusual posture over a prolonged time. Neuroleptics which have direct inhibitory action on the nigrostriatal dopamine system induce catalepsy. It may be reflected by the Parkinson-like extrapyramidal symptoms seen clinically with administration of classical antipsychotics. The experiments were carried out in male CDBR rats weighing 300-400 g. The volume of administration was 0.25 ml/100 g body weight. The animals were starved for 16 hours before treatment, water was delivered ad libitum. After intraperitoneal administration of the test substances, the forepaws of the rats were placed on a horizontal stainless steel bar elevated to 10 cm high, while the hind paws remained on a metal plate. The semi-automatic 5-channel catalepsy meter measured the time spent in this unusual posture by an electronic stop-clock. The catalepsy time was scored from 0 to 5 according to the time spent in the unusual posture. […] Means of groups were calculated.

[5] = system: conditioned avoidance responses; experiment: conditioned avoidance: pole jumping test in rats; format: in vivo, Long-Evans rats
Source text: For measuring the antipsychotic potential in a non-perturbed dopamine system the pole jumping assay was used (Cook, L., Catania, A. C. Fed. Proc. 1964, 23, 818.)
This method is an active avoidance learning test. Long-Evans rats, weighing 250-450 g, were used in the experiments. Rats are placed in a box (25×25×25 cm) on a grid floor in the center of which there is a pole. After a latency period, light is turned on for a given time then the floor is electrified to deliver an unpleasant footshock. Rats may learn to avoid the shock by jumping up to grasp the pole. As soon as the rat jumps up the light and shock are turned off. Each light-on period lasted for 15 s, shock time for 30 s with an intertrial interval of 15 s. 30 such trials per day were repeated during the learning period until animals reach a minimum of 80% avoidance rate. During the experimental sessions 20 trials/day were run. Test substances were administered ip. in a volume of 0.25 ml/100 g body weight. Significances were calculated by Student's t test.

PCP-induced stereotypy = PCP-induced stereotypy in mice; format: in vivo, CD1 mice; settings: Mus musculus, read-out: PCP-stereotypy ED50 mg/kg po.
Source text: as §2, §3

PCP-induced locomotion = experiment: PCP induced locomotor activity test (open field); format: in vivo, mice; settings: all doses (3, 7, 14, 28, 40 mg/kg) by gavage, PCP 5 mg/kg, vs vehicle
Description: The effects of compounds 121 and 183, administered orally, were also evaluated in the PCP induced locomotor activity test. Compound 121 was designated as “Compound A” and Compound 183 was designated as “Compound B” for purposes of this study. In general, the study aimed to test Compounds A and B for potential antipsychotic activity in PCP treated mice.
Compounds A & B were dissolved in 3% Tween: Compound A: 1, 3, 6, 10, and 15 mg/kg; Compound B: 3, 7, 14, 28, and 40 mg/kg; Compounds A+B were administered by gavage.
PCP (5 mg/kg) was dissolved in sterile injectable water.
The open field (“OF”) test assessed both anxiety and locomotor behavior. The open field chambers are Plexiglas square chambers (27.3×27.3×20.3 cm; Med Associates Inc., St Albans, Vt.) surrounded by infrared photobeams (16×16×16) to measure horizontal and vertical activity. The analysis was configured to divide the open field into a center and periphery zone. Distance traveled was measured from horizontal beam breaks as the mouse moved whereas rearing activity was measured from vertical beam breaks.
Mice were brought to the activity experimental room for at least 1 hr acclimation to the experimental room conditions prior to testing. […]
Data was analyzed to show baseline activity (activity during the 30 min prior to PCP injection) and PCP-induced activity (activity during the 60 min after PCP injection).

[6] = system: PCP-induced disruption of PPI; experiment: PCP-induced disruption of pre-pulse inhibition (PPI); settings: for reversal of PCP-induced disruption of PPI: PCP 8 mg/kg, C57B1/6J mice
Source text: Male C57B1/6J mice from Jackson Laboratories (Bar Harbor, Me.) were used in this study. Mice were received at 6-weeks of age. Upon receipt, mice were assigned unique identification numbers (tail marked) and were group housed in OPTImice cages. All animals remained housed in groups of four during the remainder of the study. […] During the period of acclimation, mice were examined on a regular basis, handled, and weighed to assure adequate health and suitability. Mice were maintained on a 12/12 light/dark cycle with the light on at 6:00 a.m. The room temperature was maintained between 20 and 23° C. with a relative humidity maintained between 30% and 70%. Food and water were provided ad libitum for the duration of the study. In each test, animals were randomly assigned across treatment groups.
All compounds were injected i.p. at a dose volume of 10 ml/kg. […] Phenylcyclohexylpiperidine (PCP) (8 mg/kg) was dissolved in sterile water.
The acoustic startle measured an unconditioned reflex response to external auditory stimulation. […] Mice were placed in the PPI chambers (Med Associates) for a 5 min session of white noise (70 dB) habituation.
After the acclimation period the test session was automatically started. The session started with a habituation block of 6 presentations of the startle stimulus alone, followed by 10 PPI blocks of 6 different types of trials. Trial types are: null (no stimuli), startle (120 dB), startle plus prepulse (4, 8 and 12 dB over background noise i.e. 74, 78 or 82 dB) and prepulse alone (82 dB). Trial types were presented at random within each block.
Each trial started with a 50 ms null period during which baseline movements were recorded. There was a subsequent 20 ms period during which prepulse stimuli were presented and responses to the prepulse measured. After further 100 ms the startle stimuli were presented for 40 ms and responses recorded for 100 ms from startle onset. Responses were sampled every ms. The inter-trial interval was variable with an average of 15 s (range from 10 to 20 s). In startle alone trials the basic auditory startle was measured and in prepulse plus startle trials the amount of inhibition of the normal startle was determined and expressed as a percentage of the basic startle response (from startle alone trials), excluding the startle response of the first habituation block.
Data were analyzed by analysis of variance (ANOVA) followed by post-hoc comparisons with Fisher Tests when appropriate. An effect was considered significant if p<0.05. Data are represented as the mean and standard error to the mean.

[7] = mice, ip. 30 min before apomorphine 2 mg/kg s.c.

SMILES: CN(C)CCCN1c2ccccc2Sc2ccc(Cl)cc21 [Chlorpromazine, reference compound]
DOPA levels (pmol/mg prot) ([1]; 10 mg/kg ip, NSD-1015 90 min after treatment): 56.4 ± 4.1 pmol/mg prot
effect on levels of DOPA in the EM of rats ([1]; result in words, vs saline): had no effect
ED50 ([2]; mice, po. 30 min before apomorphine 2 mg/kg s.c.): 3.6 mg/kg
inhibition of apomorphine-induced stereotyped behavior ([2]; mice, result in words): inhibited both behaviors
ED50 ([3]; mice, po. 15 min before experiment, PCP 5 mg/kg ip): 1.86 mg/kg
ED50 [4, 7]: 1.2 mg/kg
inhibition of apomorphine-induced climbing ([4]; mice, result in words): inhibited both behaviors
Catalapsy scores (catalepsy): 10:8.7
cataleptogenic potential (catalepsy): induces severe catalepsy

SMILES: CN1CCN(C2=Nc3cc(Cl)ccc3Nc3ccccc32)CC1 [Clozapine, reference compound]
DOPA levels (pmol/mg prot) ([1]; 20 mg/kg ip): 87.4 ± 9.5 pmol/mg prot
ED50 [2]: 22.9 mg/kg
ED50 [3]: 1.81 mg/kg
MED (mg/kg ip), minimal effective dose (stat. sign.) [5]: 2 mg/kg
ED50 [4]: 2.64 mg/kg
Catalapsy scores (catalepsy): 10:0.14
cataleptogenic potential (catalepsy): lack cataleptogenic potential
ED50 (PCP-induced stereotypy): 3.76 mg/kg

SMILES: CNC(=O)Nc1ccc(C2=NN(c3nncs3)C(C)Cc3cc(OC)c(OC)cc32)cc1 (centres unmarked) [Example 191]
melting point: 160 to 162 °C

The next lines start with results.

melting point: 229 to 230 °C
SMILES: COc1cc2c(cc1OC)C(c1ccc(N)cc1)=NN(c1nccs1)[C@H](C)C2 [Example 112]
ED50 [4, 7]: 25 mg/kg

melting point: 156 to 158 °C
SMILES: COc1cc2c(cc1OC)C(c1ccc(NC(C)=O)cc1)=NN(c1nccs1)[C@H](C)C2 [Example 183]
effect on PCP induced locomotion (PCP-induced locomotion): significantly decreased
ED50 [4, 7]: 8.7 mg/kg
sedation and lethargy in the mice ([6]; 15 mg/kg i.p. (high dose)): caused sedation and lethargy
reversal of PCP-induced disruption of PPI ([6]; 5, 10, and 15 mg/kg i.p.): significantly reversed
reversal of PCP-induced disruption of PPI ([6]; all doses (1.5, 5, 10, 15 mg/kg) i.p.): significantly reversed
